The results in this text go back to patent US8691804B2 (Evotec AG, priority 2008, dated 2014).

The target in the assay is T1, human H3 receptors (Homo sapiens, UniProt Q9Y5N1).
T1 construct: host or cells: CHO-K1
T1 sequence (Q9Y5N1 whole entry): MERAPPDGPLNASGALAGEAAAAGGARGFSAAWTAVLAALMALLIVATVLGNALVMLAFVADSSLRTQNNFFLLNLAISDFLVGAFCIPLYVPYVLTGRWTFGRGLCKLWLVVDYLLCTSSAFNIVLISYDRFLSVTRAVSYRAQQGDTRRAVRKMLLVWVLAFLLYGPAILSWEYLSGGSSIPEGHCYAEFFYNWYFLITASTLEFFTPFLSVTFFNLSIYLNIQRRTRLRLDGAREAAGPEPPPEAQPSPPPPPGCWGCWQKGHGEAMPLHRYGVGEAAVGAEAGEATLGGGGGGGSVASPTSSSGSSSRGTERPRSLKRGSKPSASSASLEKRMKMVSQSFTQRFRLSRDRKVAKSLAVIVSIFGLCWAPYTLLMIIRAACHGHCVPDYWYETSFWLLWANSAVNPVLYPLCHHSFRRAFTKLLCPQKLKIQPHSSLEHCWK
Put plainly: cAMP quantification assay for human H3 receptor testing. The assay is classed as cell-based. Particulars: CHO-K1 cells expressing human H3 receptors; inhibition of agonist-induced decrease of cAMP; 100 nM histamine, 10 μM forskolin; read-out: Potency range (IC50 values). The method, then: CHO—K1 cell line expressing human H3 receptors were purchased from Euroscreen (Gosselies, Belgium, Cat. no.: ES-392-C)
Human H3 receptor-expressing cell-lines were grown in Ham's F12 [Sigma, Cat. no. N6658], supplemented with 10% FBS [Sigma, Cat. no. F9665], 400 μg/ml G418 [Sigma, Cat. no. N1876] and 250 μg/ml Zeocin [Invitrogen, Cat. no. 46-0509]) according to the protocol provided by Euroscreen.
The assay measures the ability of test compounds to inhibit Histamine receptor agonist-induced decrease of intracellular free cAMP (receptor is Gi coupled).
Specifically, a cAMP quantification assay system from DiscoveRx (cAMP XS+; Cat. no. 90-0075) was used.
For the cAMP assay, confluent cells were detached from the culture vessels with 1× trypsin-EDTA solution (Sigma), and seeded into 384-well Costar plates (white, clear bottom, Cat. no. 3707) at a density of 10,000 cells per well. Cells were seeded in a volume of 50 μl in medium without antibiotics and incubated overnight in a humidified atmosphere with 5% CO2 at 37° C. The cAMP assay was performed according to the protocol provided by DiscoveRx.
The cell culture medium was removed and the cells washed once with PBS (50 μl per well). The plates were emptied by inversion and 7.5 μl/well of compound in PBS (containing 1 mM IBMX and 0.03% BSA) were added and incubated for 30 min at 37° C.
Subsequent 7.5 μl/well specific agonist solution was added and the plates for another 30 min incubated at 37° C.
hH3:100 nM histamine, 10 μM forskolin in PBS (containing 1 mM IBMX and 0.03% BSA)
After the incubation with the agonist, 5 μl/well cAMP XS antibody solution was added followed by 20 μl/well Gal/EII/Lysis (1:5:19)+ED (1:1). The plates were incubated for one hour at room temperature and afterwards 20 μl/well EA reagent was added. The luminescence was developed for approximately three hours at room temperature and the plates were read out using a ‘BMG Novostar’ plate reader.
Test compounds were assayed at 8 concentrations in triplicate. Serial 10-fold dilutions in 100% DMSO were made at a 100-times higher concentration than the final concentration and then diluted with a 2 step protocol in assay buffer to reach the required assay concentrations and 1% DMSO. […]
With `O=C([C@H]1C[C@H](Oc2ccc(C(F)(F)F)cn2)C1)N1CCCN(C2CCC2)CC1` [Example 107, 1-cyclobutyl-4-[(trans-3-{[5-(trifluoromethyl)pyridin-2-yl]oxy}cyclobutyl)carbonyl]-1,4-diazepane], the IC50 is below 100 nM.
For `CNC(=O)c1ccc(O[C@H]2C[C@@H](C(=O)N3CCCN(C4CCC4)CC3)C2)nc1` [Example 102, 6-({cis-3-[(4-cyclobutyl-1,4-diazepan-1-yl)carbonyl]cyclobutyl}oxy)-N-methylpyridine-3-carboxamide] the value was below 100 nM; for `CC(C)(O)c1ccc(O[C@H]2C[C@@H](C(=O)N3CCCN(C4CCC4)CC3)C2)cn1` [Example 165, 2-[5-({cis-3-[(4-cyclobutyl-1,4-diazepan-1-yl)carbonyl]cyclobutyl}oxy)pyridin-2-yl]propan-2-ol], below 100 nM; for `Cc1ccc(COC2CN(C(=O)N3CCCN(C4CCC4)CC3)C2)cn1` [Example 164, 1-cyclobutyl-4-({3-[(6-methylpyridin-3-yl)methoxy]azetidin-1-yl}carbonyl)-1,4-diazepane], below 100 nM.
On to `O=C(NC1CCCCC1)C1CN(C(=O)N2CCCN(C3CCC3)CC2)C1` [Example 131, 1-[(4-cyclobutyl-1,4-diazepan-1-yl)carbonyl]-N-cyclohexylazetidine-3-carboxamide], for which the IC50 was below 100 nM.
Turning to `O=C(C1CN(C(=O)N2CCCN(C3CCC3)CC2)C1)N1CCC(F)CC1` [Example 129, 1-cyclobutyl-4-({3-[(4-fluoropiperidin-1-yl)carbonyl]azetidin-1-yl}carbonyl)-1,4-diazepane], the IC50 was below 100 nM.
For `CN(C(=O)c1ccc(Cl)cc1)C1CN(C(=O)N2CCCN(C3CCC3)CC2)C1` [Example 142, 4-chloro-N-{1-[(4-cyclobutyl-1,4-diazepan-1-yl)carbonyl]azetidin-3-yl}-N-methylbenzamide] the value was below 100 nM; for `O=C(N1CCCN(C2CCC2)CC1)N1CC(Oc2ccc3ccccc3c2)C1` [Example 152, 1-cyclobutyl-4-{[3-(naphthalen-2-yloxy)azetidin-1-yl]carbonyl}-1,4-diazepane], below 100 nM.
On to `COc1cccc(OC2CN(C(=O)N3CCCN(C4CCC4)CC3)C2)c1` [Example 91, 1-cyclobutyl-4-{[3-(3-methoxyphenoxy)azetidin-1-yl]carbonyl}-1,4-diazepane], for which the concentration for half-maximal inhibition (IC50) is below 100 nM.
For `O=C(N1CCCN(C2CCC2)CC1)N1CC(OCc2ccc(Cl)cc2)C1` [Example 97, 1-({3-[(4-chlorobenzyl)oxy]azetidin-1-yl}carbonyl)-4-cyclobutyl-1,4-diazepane] the value was below 100 nM; for `CCN1CCCN(C(=O)N2CC(Oc3ccc(C(C)(C)O)nc3)C2)CC1` [Example 157, 2-[5-({1-[(4-ethyl-1,4-diazepan-1-yl)carbonyl]azetidin-3-yl}oxy)pyridin-2-yl]propan-2-ol], below 100 nM; for `COCC1CN(C(=O)N2CCCN(C3CCC3)CC2)C1` [Example 148, 1-cyclobutyl-4-{[3-(methoxymethyl)azetidin-1-yl]carbonyl}-1,4-diazepane], below 100 nM.
For `O=C(C1CN(C(=O)N2CCCN(C3CCC3)CC2)C1)N1CCCCC1` [Example 124, 1-cyclobutyl-4-{[3-(piperidin-1-ylcarbonyl)azetidin-1-yl]carbonyl}-1,4-diazepane] the value was below 100 nM; for `CC(C)(O)c1ccc(OC2CN(C(=O)N3CCCN(C4CCCC4)CC3)C2)cn1` [Example 159, 2-[5-({1-[(4-cyclopentyl-1,4-diazepan-1-yl)carbonyl]azetidin-3-yl}oxy)pyridin-2-yl]propan-2-ol], 500 to 5000 nM; for `O=C(N1CCCN(C2CCC2)CC1)N1CC(OCc2ccc(F)cc2)C1` [Example 95, 1-cyclobutyl-4-({3-[(4-fluorobenzyl)oxy]azetidin-1-yl}carbonyl)-1,4-diazepane], below 100 nM.
